Experimental data taken from PubChem BioAssay AID1963825 (Molecular Pharmacology Branch, DTP, NCI, 2024).

Experiment: Anticancer human tumor 997537-175-T-J1-PDC patient-derived colon adenocarcinoma cell line growth inhibition [POLQ]
Conditions: 997537-175-T-J1-PDC complex spheroid viability, combination with POLQ inhibitors; second compound 0.0316 µM; first compound 3.16 µM; active compounds read low
In short: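 PDC + HUVEC + MSC complex spheroids; POLQ inhibitors ± partner drugs; top conc. at/near clinical Cmax, else 10 microM (SN-38 1 microM), half-log dilutions; 37 degrees C, 5% CO2.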
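Also: luminescence signal used as a surrogate for viable cells; spheroids exposed to drugs for seven days before readout.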

SMILES | viability, T/C
CC1COCCN1c1cc(C2(S(C)(=N)=O)CC2)nc(-c2ccnc3[nH]ccc23)n1 (configuration not stated) + Cc1cccc(N(C)C(=O)C2C(O)CCN2c2nc(C)cc(C(F)(F)F)c2C#N)c1 | 83.6%
CNCc1ccc(-c2[nH]c3cc(F)cc4c3c2CCNC4=O)cc1 + Nc1ccc(C#CCN(C(=O)Cc2ncc(C(F)(F)F)cc2C(F)(F)F)c2ccc(F)cc2)nn1 | 103%
O=C(c1cc(Cc2n[nH]c(=O)c3ccccc23)ccc1F)N1CCN(C(=O)C2CC2)CC1 + Cc1cccc(N(C)C(=O)C2C(O)CCN2c2nc(C)cc(C(F)(F)F)c2C#N)c1 | 102%

Same assay, conditions: 997537-175-T-J1-PDC complex spheroid viability, combination with POLQ inhibitors; second compound 0.0316 µM; first compound 10 µM; active compounds read low

SMILES | viability, T/C
CC1COCCN1c1cc(C2(S(C)(=N)=O)CC2)nc(-c2ccnc3[nH]ccc23)n1 (configuration not stated) + Cc1cccc(N(C)C(=O)C2C(O)CCN2c2nc(C)cc(C(F)(F)F)c2C#N)c1 | 47.6%
CNCc1ccc(-c2[nH]c3cc(F)cc4c3c2CCNC4=O)cc1 + Nc1ccc(C#CCN(C(=O)Cc2ncc(C(F)(F)F)cc2C(F)(F)F)c2ccc(F)cc2)nn1 | 104%
O=C(c1cc(Cc2n[nH]c(=O)c3ccccc23)ccc1F)N1CCN(C(=O)C2CC2)CC1 + Cc1cccc(N(C)C(=O)C2C(O)CCN2c2nc(C)cc(C(F)(F)F)c2C#N)c1 | 103%

Same assay, conditions: 997537-175-T-J1-PDC complex spheroid viability, combination with POLQ inhibitors; second compound 0.1 µM; first compound 0.00316 µM; active compounds read low

SMILES | viability, T/C
CCc1c2c(nc3ccc(O)cc13)-c1cc3c(c(=O)n1C2)COC(=O)[C@]3(O)CC + COC1C(OC(N)=O)C(O)C(Oc2ccc3c(O)c(NC(=O)c4ccc(O)c(CC=C(C)C)c4)c(=O)oc3c2C)OC1(C)C | 72.3%

Same assay, conditions: 997537-175-T-J1-PDC complex spheroid viability, combination with POLQ inhibitors; second compound 0.1 µM; first compound 0.01 µM; active compounds read low

SMILES | viability, T/C
CCc1c2c(nc3ccc(O)cc13)-c1cc3c(c(=O)n1C2)COC(=O)[C@]3(O)CC + COC1C(OC(N)=O)C(O)C(Oc2ccc3c(O)c(NC(=O)c4ccc(O)c(CC=C(C)C)c4)c(=O)oc3c2C)OC1(C)C | 74.8%

Same assay, conditions: 997537-175-T-J1-PDC complex spheroid viability, combination with POLQ inhibitors; second compound 0.1 µM; first compound 0.0316 µM; active compounds read low

SMILES | viability, T/C
CCc1c2c(nc3ccc(O)cc13)-c1cc3c(c(=O)n1C2)COC(=O)[C@]3(O)CC + COC1C(OC(N)=O)C(O)C(Oc2ccc3c(O)c(NC(=O)c4ccc(O)c(CC=C(C)C)c4)c(=O)oc3c2C)OC1(C)C | 32.9%
CC1COCCN1c1cc(C2(S(C)(=N)=O)CC2)nc(-c2ccnc3[nH]ccc23)n1 (configuration not stated) + Cc1cccc(N(C)C(=O)C2C(O)CCN2c2nc(C)cc(C(F)(F)F)c2C#N)c1 | 97.5%
CNCc1ccc(-c2[nH]c3cc(F)cc4c3c2CCNC4=O)cc1 + Nc1ccc(C#CCN(C(=O)Cc2ncc(C(F)(F)F)cc2C(F)(F)F)c2ccc(F)cc2)nn1 | 98.6%
O=C(c1cc(Cc2n[nH]c(=O)c3ccccc23)ccc1F)N1CCN(C(=O)C2CC2)CC1 + Cc1cccc(N(C)C(=O)C2C(O)CCN2c2nc(C)cc(C(F)(F)F)c2C#N)c1 | 91.9%

Same assay, conditions: 997537-175-T-J1-PDC complex spheroid viability, combination with POLQ inhibitors; second compound 0.1 µM; first compound 0.1 µM; active compounds read low

SMILES | viability, T/C
CCc1c2c(nc3ccc(O)cc13)-c1cc3c(c(=O)n1C2)COC(=O)[C@]3(O)CC + COC1C(OC(N)=O)C(O)C(Oc2ccc3c(O)c(NC(=O)c4ccc(O)c(CC=C(C)C)c4)c(=O)oc3c2C)OC1(C)C | 14.3%
CC1COCCN1c1cc(C2(S(C)(=N)=O)CC2)nc(-c2ccnc3[nH]ccc23)n1 (configuration not stated) + Cc1cccc(N(C)C(=O)C2C(O)CCN2c2nc(C)cc(C(F)(F)F)c2C#N)c1 | 96.6%
CNCc1ccc(-c2[nH]c3cc(F)cc4c3c2CCNC4=O)cc1 + Nc1ccc(C#CCN(C(=O)Cc2ncc(C(F)(F)F)cc2C(F)(F)F)c2ccc(F)cc2)nn1 | 102%
O=C(c1cc(Cc2n[nH]c(=O)c3ccccc23)ccc1F)N1CCN(C(=O)C2CC2)CC1 + Cc1cccc(N(C)C(=O)C2C(O)CCN2c2nc(C)cc(C(F)(F)F)c2C#N)c1 | 108%

Same assay, conditions: 997537-175-T-J1-PDC complex spheroid viability, combination with POLQ inhibitors; second compound 0.1 µM; first compound 0.316 µM; active compounds read low

SMILES | viability, T/C
CCc1c2c(nc3ccc(O)cc13)-c1cc3c(c(=O)n1C2)COC(=O)[C@]3(O)CC + COC1C(OC(N)=O)C(O)C(Oc2ccc3c(O)c(NC(=O)c4ccc(O)c(CC=C(C)C)c4)c(=O)oc3c2C)OC1(C)C | 7.35%
CC1COCCN1c1cc(C2(S(C)(=N)=O)CC2)nc(-c2ccnc3[nH]ccc23)n1 (configuration not stated) + Cc1cccc(N(C)C(=O)C2C(O)CCN2c2nc(C)cc(C(F)(F)F)c2C#N)c1 | 101%
CNCc1ccc(-c2[nH]c3cc(F)cc4c3c2CCNC4=O)cc1 + Nc1ccc(C#CCN(C(=O)Cc2ncc(C(F)(F)F)cc2C(F)(F)F)c2ccc(F)cc2)nn1 | 93.2%
O=C(c1cc(Cc2n[nH]c(=O)c3ccccc23)ccc1F)N1CCN(C(=O)C2CC2)CC1 + Cc1cccc(N(C)C(=O)C2C(O)CCN2c2nc(C)cc(C(F)(F)F)c2C#N)c1 | 102%

Same assay, conditions: 997537-175-T-J1-PDC complex spheroid viability, combination with POLQ inhibitors; second compound 0.1 µM; first compound 1 µM; active compounds read low

SMILES | viability, T/C
CCc1c2c(nc3ccc(O)cc13)-c1cc3c(c(=O)n1C2)COC(=O)[C@]3(O)CC + COC1C(OC(N)=O)C(O)C(Oc2ccc3c(O)c(NC(=O)c4ccc(O)c(CC=C(C)C)c4)c(=O)oc3c2C)OC1(C)C | 6.22%
CC1COCCN1c1cc(C2(S(C)(=N)=O)CC2)nc(-c2ccnc3[nH]ccc23)n1 (configuration not stated) + Cc1cccc(N(C)C(=O)C2C(O)CCN2c2nc(C)cc(C(F)(F)F)c2C#N)c1 | 83.6%
CNCc1ccc(-c2[nH]c3cc(F)cc4c3c2CCNC4=O)cc1 + Nc1ccc(C#CCN(C(=O)Cc2ncc(C(F)(F)F)cc2C(F)(F)F)c2ccc(F)cc2)nn1 | 95.5%
O=C(c1cc(Cc2n[nH]c(=O)c3ccccc23)ccc1F)N1CCN(C(=O)C2CC2)CC1 + Cc1cccc(N(C)C(=O)C2C(O)CCN2c2nc(C)cc(C(F)(F)F)c2C#N)c1 | 105%

Same assay, conditions: 997537-175-T-J1-PDC complex spheroid viability, combination with POLQ inhibitors; second compound 0.1 µM; first compound 3.16 µM; active compounds read low

SMILES | viability, T/C
CC1COCCN1c1cc(C2(S(C)(=N)=O)CC2)nc(-c2ccnc3[nH]ccc23)n1 (configuration not stated) + Cc1cccc(N(C)C(=O)C2C(O)CCN2c2nc(C)cc(C(F)(F)F)c2C#N)c1 | 63.5%
CNCc1ccc(-c2[nH]c3cc(F)cc4c3c2CCNC4=O)cc1 + Nc1ccc(C#CCN(C(=O)Cc2ncc(C(F)(F)F)cc2C(F)(F)F)c2ccc(F)cc2)nn1 | 99.2%
O=C(c1cc(Cc2n[nH]c(=O)c3ccccc23)ccc1F)N1CCN(C(=O)C2CC2)CC1 + Cc1cccc(N(C)C(=O)C2C(O)CCN2c2nc(C)cc(C(F)(F)F)c2C#N)c1 | 101%

Same assay, conditions: 997537-175-T-J1-PDC complex spheroid viability, combination with POLQ inhibitors; second compound 0.1 µM; first compound 10 µM; active compounds read low

SMILES | viability, T/C
CC1COCCN1c1cc(C2(S(C)(=N)=O)CC2)nc(-c2ccnc3[nH]ccc23)n1 (configuration not stated) + Cc1cccc(N(C)C(=O)C2C(O)CCN2c2nc(C)cc(C(F)(F)F)c2C#N)c1 | 64.7%
CNCc1ccc(-c2[nH]c3cc(F)cc4c3c2CCNC4=O)cc1 + Nc1ccc(C#CCN(C(=O)Cc2ncc(C(F)(F)F)cc2C(F)(F)F)c2ccc(F)cc2)nn1 | 101%
O=C(c1cc(Cc2n[nH]c(=O)c3ccccc23)ccc1F)N1CCN(C(=O)C2CC2)CC1 + Cc1cccc(N(C)C(=O)C2C(O)CCN2c2nc(C)cc(C(F)(F)F)c2C#N)c1 | 86.2%

Same assay, conditions: 997537-175-T-J1-PDC complex spheroid viability, combination with POLQ inhibitors; second compound 0.316 µM; first compound 0.00316 µM; active compounds read low

SMILES | viability, T/C
CCc1c2c(nc3ccc(O)cc13)-c1cc3c(c(=O)n1C2)COC(=O)[C@]3(O)CC + COC1C(OC(N)=O)C(O)C(Oc2ccc3c(O)c(NC(=O)c4ccc(O)c(CC=C(C)C)c4)c(=O)oc3c2C)OC1(C)C | 78%

Same assay, conditions: 997537-175-T-J1-PDC complex spheroid viability, combination with POLQ inhibitors; second compound 0.316 µM; first compound 0.01 µM; active compounds read low

SMILES | viability, T/C
CCc1c2c(nc3ccc(O)cc13)-c1cc3c(c(=O)n1C2)COC(=O)[C@]3(O)CC + COC1C(OC(N)=O)C(O)C(Oc2ccc3c(O)c(NC(=O)c4ccc(O)c(CC=C(C)C)c4)c(=O)oc3c2C)OC1(C)C | 73%

Same assay, conditions: 997537-175-T-J1-PDC complex spheroid viability, combination with POLQ inhibitors; second compound 0.316 µM; first compound 0.0316 µM; active compounds read low

SMILES | viability, T/C
CCc1c2c(nc3ccc(O)cc13)-c1cc3c(c(=O)n1C2)COC(=O)[C@]3(O)CC + COC1C(OC(N)=O)C(O)C(Oc2ccc3c(O)c(NC(=O)c4ccc(O)c(CC=C(C)C)c4)c(=O)oc3c2C)OC1(C)C | 33.8%
CC1COCCN1c1cc(C2(S(C)(=N)=O)CC2)nc(-c2ccnc3[nH]ccc23)n1 (configuration not stated) + Cc1cccc(N(C)C(=O)C2C(O)CCN2c2nc(C)cc(C(F)(F)F)c2C#N)c1 | 110%
CNCc1ccc(-c2[nH]c3cc(F)cc4c3c2CCNC4=O)cc1 + Nc1ccc(C#CCN(C(=O)Cc2ncc(C(F)(F)F)cc2C(F)(F)F)c2ccc(F)cc2)nn1 | 87.3%
O=C(c1cc(Cc2n[nH]c(=O)c3ccccc23)ccc1F)N1CCN(C(=O)C2CC2)CC1 + Cc1cccc(N(C)C(=O)C2C(O)CCN2c2nc(C)cc(C(F)(F)F)c2C#N)c1 | 107%

Same assay, conditions: 997537-175-T-J1-PDC complex spheroid viability, combination with POLQ inhibitors; second compound 0.316 µM; first compound 0.1 µM; active compounds read low

SMILES | viability, T/C
CCc1c2c(nc3ccc(O)cc13)-c1cc3c(c(=O)n1C2)COC(=O)[C@]3(O)CC + COC1C(OC(N)=O)C(O)C(Oc2ccc3c(O)c(NC(=O)c4ccc(O)c(CC=C(C)C)c4)c(=O)oc3c2C)OC1(C)C | 14.3%
CC1COCCN1c1cc(C2(S(C)(=N)=O)CC2)nc(-c2ccnc3[nH]ccc23)n1 (configuration not stated) + Cc1cccc(N(C)C(=O)C2C(O)CCN2c2nc(C)cc(C(F)(F)F)c2C#N)c1 | 107%
CNCc1ccc(-c2[nH]c3cc(F)cc4c3c2CCNC4=O)cc1 + Nc1ccc(C#CCN(C(=O)Cc2ncc(C(F)(F)F)cc2C(F)(F)F)c2ccc(F)cc2)nn1 | 108%
O=C(c1cc(Cc2n[nH]c(=O)c3ccccc23)ccc1F)N1CCN(C(=O)C2CC2)CC1 + Cc1cccc(N(C)C(=O)C2C(O)CCN2c2nc(C)cc(C(F)(F)F)c2C#N)c1 | 105%

Same assay, conditions: 997537-175-T-J1-PDC complex spheroid viability, combination with POLQ inhibitors; second compound 0.316 µM; first compound 0.316 µM; active compounds read low

SMILES | viability, T/C
CCc1c2c(nc3ccc(O)cc13)-c1cc3c(c(=O)n1C2)COC(=O)[C@]3(O)CC + COC1C(OC(N)=O)C(O)C(Oc2ccc3c(O)c(NC(=O)c4ccc(O)c(CC=C(C)C)c4)c(=O)oc3c2C)OC1(C)C | 6.7%
CC1COCCN1c1cc(C2(S(C)(=N)=O)CC2)nc(-c2ccnc3[nH]ccc23)n1 (configuration not stated) + Cc1cccc(N(C)C(=O)C2C(O)CCN2c2nc(C)cc(C(F)(F)F)c2C#N)c1 | 90.8%
